Experimental data taken from patent publication US6316182A, “Detection of reverse transcriptase by DNA hybridization assay” (priority 1992, dated 2001).
pIC50: −log10 of the molar value. Where “and” joins values, the source holds several entries; their conditions need not be identical. Identical values can stand only once. Like-named read-outs stand apart in the source and are kept apart here.

Assays:
[1] = tested on: AMV RT; assay: Heteropolymeric RNA template RT hybridization assay, inhibition of AMV RT (Example 3); type: biochemical, avian myeloblastosis virus; conditions: for Absorbance (450 nm-650 nm): no-drug absorbance 3.760
Description: (§1) 1. 10 μL of 1 N KOH was added to each tube and incubated at 37° C. for 15 minutes to hydrolyze the RNA.
(§2) 2. 10 μL of 1 N KH2 PO4 was added to each tube to neutralize the pH and […] of solution from each tube was transferred to a well of a streptavidin-coated microplate.
(§3) 3. 50 μL of the following solution was added to each well:
(§4) 4. The wells were covered with an adhesive plate cover and incubated at 37° C. for 2 hours.
(§5) 6. 100 μL of tetramethylbenzidine (TMB, SOMA) was added to each well and incubated for 1 hour at room temperature.
(§6) 7. 100 μL of TMB Stop Solution (SOMA) was added to each well and the absorbance (450 nm-650 nm) of the wells was read with a plate reader.
Same as described in Example 1 above.
AMV RT (Du Pont) was used as a model to illustrate use of the method of the present invention for detecting and/or quantitating the ability of a compound to inhibit RT activity. AMV RT was added to give tubes containing 40 μL of the following solution:
These reaction conditions were similar to those of Example 1 above except with respect to the addition of the inhibitor, the lower dNTP concentration (0.001 mM instead of 0.5 mM) and the increased amount of RT (200 mU instead of 5 mU). Reducing the dNTPs decreases the signal in the assay, but increasing the RT increases the signal. The reduced dNTP concentration helps to make the assay more sensitive to inhibitors which act competitively with the dNTPs and, thus, less inhibitor is needed to achieve the effect. By adding more inhibitor, the same results can be obtained at higher dNTP concentrations.
The tubes were incubated at 37° C. for 1 hour to allow the synthesis of cDNA.
Same as for Example 1 described above.

[2] = tested on: HIV-1 reverse transcriptase with valine for leucine at codon 74; conditions: valine for the wild-type leucine at codon 74; cited from earlier work
[3] = biological target: T1, wild-type RT (Human immunodeficiency virus type 1 group M subtype B, UniProt P04585); assay: Heteropolymeric RNA template RT hybridization assay, inhibition of wild-type RT (Example 2); type: biochemical, HIV-1
T1 construct: Wild-type and mutant RT genes of these clones were subcloned into a bacterial expression vector (pKRT2); made in house; host or cells: E. coli
Description: (§7) A template RNA was synthesized by in vitro transcription from linearized pSP72 plasmid DNA by performing the following steps:
(§8) 2. In vitro transcription with T7 RNA polymerase was performed by 2 hour incubation at 37° C. of a solution containing 50 μg/mL of the linearized DNA, 400 units/mL T7 RNA polymerase, 40 mM Tris-HCl buffer, pH 8.0, 6 mM MgCl2, 2 mM spermidine, 10 mM NaCl, 10 mM DTT, 0.5 mM rATP, 0.5 mM rGTP, 0.5 mM rCTP and 0.5 mM rUTP.
(§9) The following DNA oligonucleotide was synthesized on a DNA synthesizer employing standard methods:
(§10) The following probe oligonucleotides were synthesized on a DNA synthesizer and conjugated with biotin or horseradish peroxidase (HRP) employing standard methods.
as §1, §2, §3, §4, §5, §6
(§11) In this example, RT was obtained from E. coli expression systems as described below and was added to each tube in sufficient amount to give a significant signal (about 1-2 absorbance units) in the absence of drug. The same amount of RT was added to each tube. Both a wild-type and a codon 74 (ddI-resistant) mutant RT were tested. Molecular clones were constructed by site-directed mutagenesis to contain a mutation at codon 74, 215, and/or 219. Mutants at codon 74 are resistant to ddI. Wild-type and mutant RT genes of these clones were subcloned into a bacterial expression vector (pKRT2). Bacterial lysates containing recombinant expressed RT, both wild-type and mutant, were made as previously described (D'Aquila, R. T. and Summers, W. C. (1989) JAIDS 2:579-587). The IC50 was determined by computerized estimation (Systat version 5.1) of the median-effect equation: fractional reduction=1/[1+(IC50/drug concentration)^m ]. Each IC50 is the mean of 5-10 experiments. Results of a one-tailed Mann-Whitney U test for the difference between mean wild-type and mutant IC50s: p<0.005.
(§12) An amount of ddATP (the active form of ddI) varying from 0.0005 to 0.250 mM was added to various tubes containing 40 μL of the following solution:
(§13) In this example, the dNTP concentrations were the same as described in Example 1 above.
(§14) These tubes were incubated at 37° C. for 1 hour to allow the synthesis of cDNA. […]

[4] = biological target: T2, codon 74 (ddI-resistant) mutant RT (Human immunodeficiency virus type 1 group M subtype B, UniProt P04585, L661V); assay: Heteropolymeric RNA template RT hybridization assay, inhibition of codon 74 mutant RT (Example 2); type: biochemical, HIV-1
T2 construct: Wild-type and mutant RT genes of these clones were subcloned into a bacterial expression vector (pKRT2); made in house; host or cells: E. coli
Description: as §7, §8, §9, §10, §1, §2, §3, §4, §5, §6, §11, §12, §13, §14

[5] = tested on: triple mutant RT (74/215/219); assay: Heteropolymeric RNA template RT hybridization assay, inhibition of triple mutant RT 74/215/219 (Example 2); type: biochemical, HIV-1; conditions: 74/215/219 mutant RT; single determinations; read-out: IC50 (multiple determinations)
Description: as §11, §12, §13, §14

[6] = tested on: HIV-1 reverse transcriptase with codon 215 and/or codon 219 substitution; conditions: phenylalanine or tyrosine for threonine at codon 215, and/or glutamine for lysine at codon 219; cited from earlier work

**Q.** With O=C(O)P(=O)(O)O [fosgarnet] as the compound, how does the “inhibition detected and/or quantitated” value ([1]; similar experiment, non-nucleoside RT inhibitor) read?
**A.** The value was “could also be detected and/or quantitated”.

**Q.** For O=c1[nH]cnc2c1ncn2[C@H]1CC[C@@H](CO)O1 [ddI], which “resistance of the RT to the drug” value [2] is on record?
**A.** Its value is “leads to ddI resistance”.

**Q.** With Nc1ncnc2c1ncn2[C@H]1CC[C@@H](COP(=O)(O)OP(=O)(O)OP(=O)(O)O)O1 [ddATP] as the compound, how does the pIC50 ([3]; 10 cases, 0.5 mM dNTPs, read-out: Maximum (IC50)) read?
**A.** Its pIC50 is 5.06.

**Q.** What about the pIC50 ([3]; 10 cases, 0.5 mM dNTPs, read-out: Minimum (IC50)) of the same compound?
**A.** The pIC50 was 5.51.

**Q.** What about the pIC50 ([3]; mean of 10 cases, 0.5 mM dNTPs, wild-type vs mutant p<0.005, read-out: Mean (IC50)) of the same compound?
**A.** The pIC50 was 5.17.

**Q.** And the pIC50 ([3]; single determinations, read-out: IC50 (multiple determinations))?
**A.** Its pIC50 is 5.07 and 5.17 and 5.11 and 5.31 and 5.24.

**Q.** And the “Absorbance (450 nm-650 nm)” value ([1]; ddATP 0.0001 mM)?
**A.** Its value is 3.593.

**Q.** What about the “Absorbance (450 nm-650 nm)” value ([1]; ddATP 0.00025 mM) of the same compound?
**A.** The value was 2.984.

**Q.** And the “Absorbance (450 nm-650 nm)” value ([1]; ddATP 0.0005 mM)?
**A.** The value was 2.079.

**Q.** And the “Absorbance (450 nm-650 nm)” value ([1]; ddATP 0.0010 mM)?
**A.** Its value is 1.365.

**Q.** And the “Absorbance (450 nm-650 nm)” value ([1]; ddATP 0.0025 mM)?
**A.** Its value is 0.350.

**Q.** And the “Absorbance (450 nm-650 nm)” value ([1]; ddATP 0.0050 mM)?
**A.** The value was 0.197.

**Q.** And the “Absorbance (450 nm-650 nm)” value ([1]; ddATP 0.0100 mM)?
**A.** Its value is 0.224.

**Q.** And the pIC50 ([4]; 74 mutant RT, single determinations, read-out: IC50 (multiple determinations))?
**A.** The pIC50 was 4.88 and 4.78 and 4.87.

**Q.** What about the pIC50 ([4]; Mutant 74 RT, 5 cases, 0.5 mM dNTPs, read-out: Maximum (IC50)) of the same compound?
**A.** The pIC50 was 4.53.

**Q.** What about the pIC50 ([4]; Mutant 74 RT, 5 cases, 0.5 mM dNTPs, read-out: Minimum (IC50)) of the same compound?
**A.** Its pIC50 is 4.95.

**Q.** What about the pIC50 ([4]; Mutant 74 RT, mean of 5 cases, 0.5 mM dNTPs, wild-type vs mutant p<0.005, read-out: Mean (IC50)) of the same compound?
**A.** Its pIC50 is 4.77.

**Q.** And the pIC50 [5]?
**A.** The pIC50 was 4.10.

**Q.** For Cc1cn([C@H]2C[C@H](N=[N+]=[N-])[C@@H](CO)O2)c(=O)[nH]c1=O [AZT, zidovudine], which “resistance of the RT to the drug” value [6] is on record?
**A.** Its value is “leads to resistance to AZT”.
